From ChEMBL document CHEMBL1201862, “PubChem BioAssay data set” (2004) come the findings set out here.

Molecules are shown by their SMILES.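 Results reflect a 48-hour exposure of cells in 96-well plates to compound at five concentrations. The concentration for 50% growth inhibition is given as GI50.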 The source made the active and inactive calls. No stated cut-off is given here; in the data, active = GI50 up to about 1.1 µM and inactive = higher.

Test systems include MDA-MB-435; CAKI-1; SF-268; LOX IMVI; U-251; DU-145; EKVX; SF-539; 786-0; UACC-257; IGROV-1; UO-31; SK-MEL-5; OVCAR-8; M14; SNB-19; KM12; RPMI-8226; HCC 2998.
What all share (test): NCI-60 cell line screen, 48 h

Consider `Cc1c(S(=O)(=O)N/C(=N\O)Nc2ccc(Cl)cc2)sc2ccc(Cl)cc12`, for which the GI50 in the assay with MDA-MB-435 is 16.3 µM (inactive); in the assay on CAKI-1, 17.5 µM (inactive); with SF-268, 18.1 µM (inactive); in the assay on LOX IMVI, 17 µM (inactive); with U-251, 16.1 µM (inactive); in the assay with DU-145, 23.3 µM (inactive). Further, the GI50 in the assay on EKVX is 12.3 µM (inactive); in the assay on SF-539 it was 21.5 µM (inactive); in the assay on 786-0, 17.5 µM (inactive); in the assay with UACC-257, 16.4 µM (inactive); with IGROV-1, 12.7 µM (inactive); in the assay on UO-31 it was 35.8 µM (inactive). The GI50 in the assay with SK-MEL-5 was 14.1 µM (inactive); in the assay with OVCAR-8 it was 17.3 µM (inactive); in the assay on M14, 16.9 µM (inactive); in the assay with SNB-19 it was 18.2 µM (inactive); in the assay on KM12, 18.4 µM (inactive).
Take `O=C1CCC(=O)N1Sc1ccccc1`: the GI50 in the assay with CAKI-1, in the assay with SF-268, in the assay with LOX IMVI, in the assay with U-251, in the assay with EKVX and with SF-539 was > 100 µM (inactive) in each case. Further, the GI50 in the assay on 786-0, in the assay with UACC-257, in the assay with IGROV-1, in the assay with UO-31, in the assay with SK-MEL-5 and with OVCAR-8 was > 100 µM (inactive) throughout. Besides, the GI50 in the assay with M14, with SNB-19, with KM12 and in the assay on RPMI-8226 was > 100 µM (inactive) in each case.
Turning to `CC(C)(C)OC(=O)N1CCCC1C(=O)NCCNc1ccc(NCCNC(=O)C2CCCN2C(=O)OC(C)(C)C)c2c1C(=O)c1ccccc1C2=O` (stereo not given), the GI50 in the assay on MDA-MB-435 is 14.1 µM (inactive); with CAKI-1 it was 18.5 µM (inactive); with SF-268 it was 31.3 µM (inactive); in the assay with LOX IMVI, 12.4 µM (inactive); in the assay with U-251, 18.8 µM (inactive); with EKVX it was 27 µM (inactive). For the same molecule, the GI50 is 16.1 µM (inactive) in the assay on SF-539; 14.8 µM (inactive) in the assay on 786-0; 14.5 µM (inactive) with UACC-257; 13.9 µM (inactive) with IGROV-1; 13 µM (inactive) in the assay on HCC 2998; 0.112 µM (active) in the assay with SK-MEL-5. The GI50 in the assay with OVCAR-8 is 5.83 µM (inactive); in the assay with M14, 15.8 µM (inactive); in the assay on SNB-19, < 0.01 µM (active); with KM12, 12.2 µM (inactive); in the assay on RPMI-8226, < 0.01 µM (active).
With `O=[N+]([O-])c1ccc(/N=N/c2c(O)ccc3cc(S(=O)(=O)O)cc(S(=O)(=O)O)c23)cc1`, the GI50 in the assay with MDA-MB-435, in the assay with CAKI-1, in the assay with SF-268, in the assay with LOX IMVI, in the assay with U-251 and with DU-145 was > 100 µM (inactive) throughout. In addition, the GI50 with EKVX, in the assay on 786-0, in the assay on UACC-257, with IGROV-1, in the assay with UO-31 and with SK-MEL-5 was > 100 µM (inactive) each time. Also, the GI50 with OVCAR-8, in the assay on M14, in the assay with SNB-19, in the assay on KM12 and with RPMI-8226 was > 100 µM (inactive) each time.
For the molecule `NCCCNc1ccc2c3c(nn2CCNCCO)-c2c(O)ccc(O)c2C(=O)c13`, the GI50 in the assay on MDA-MB-435 was 9.71 µM (inactive); in the assay on SF-268 it was 1.35 µM (inactive); in the assay on LOX IMVI, 0.927 µM (active); in the assay on DU-145, 1.29 µM (inactive); in the assay on 786-0 it was 2.38 µM (inactive); in the assay on UACC-257, 5.81 µM (inactive). Besides, the GI50 with IGROV-1 was 2.46 µM (inactive); in the assay with SK-MEL-5, 0.925 µM (active); with M14 it was 3.2 µM (inactive); with SNB-19, 0.354 µM (active); in the assay on KM12, 3.78 µM (inactive); with RPMI-8226, 1.2 µM (inactive).
With `CC(C)C1CN1CC(O)Cn1ccnc1[N+](=O)[O-]` (stereo not given), the GI50 in the assay with CAKI-1, with SF-268, in the assay on U-251, in the assay on DU-145, with EKVX and in the assay with SF-539 was > 100 µM (inactive) throughout. For the same molecule, the GI50 in the assay on 786-0, with UACC-257, in the assay with IGROV-1, in the assay on UO-31, with HCC 2998 and in the assay on SK-MEL-5 was > 100 µM (inactive) throughout. Moreover, the GI50 in the assay with OVCAR-8, with M14, with SNB-19 and with KM12 was > 100 µM (inactive) each time.
Take `CCCSc1ccc2[nH]c(/N=C/c3ccco3)cc2c1`: the GI50 in the assay on MDA-MB-435 was 17.8 µM (inactive); with CAKI-1, 34 µM (inactive); with SF-268 it was 52.6 µM (inactive); with LOX IMVI, 37.7 µM (inactive); in the assay on DU-145, 63.5 µM (inactive); with EKVX, 3.77 µM (inactive). The GI50 with SF-539 was 12.4 µM (inactive); in the assay on 786-0, 40.2 µM (inactive); with UACC-257, 33.6 µM (inactive); in the assay with IGROV-1 it was 36.5 µM (inactive); with UO-31, 41.9 µM (inactive); in the assay on SK-MEL-5 it was 13.7 µM (inactive). Besides, the GI50 is 31.5 µM (inactive) in the assay on OVCAR-8; 44.6 µM (inactive) in the assay with M14; > 100 µM (inactive) in the assay with SNB-19; 49.4 µM (inactive) with KM12; 0.184 µM (active) in the assay with RPMI-8226.
As to `Oc1c(Br)cc(Br)cc1CN(Cc1cc(Br)cc(Br)c1O)C1CCCCC1`, the GI50 in the assay with MDA-MB-435 is 31.3 µM (inactive); in the assay on CAKI-1, 34.9 µM (inactive); in the assay with SF-268 it was 22 µM (inactive); in the assay with LOX IMVI, 31.9 µM (inactive); in the assay with U-251, 24.9 µM (inactive); with DU-145, 38 µM (inactive). Moreover, the GI50 in the assay with EKVX is 30.5 µM (inactive); with 786-0, 41.1 µM (inactive); in the assay on UACC-257, 19.5 µM (inactive); in the assay on IGROV-1, 34.1 µM (inactive); in the assay with UO-31, 31.7 µM (inactive); with SK-MEL-5, 16.9 µM (inactive). The GI50 with OVCAR-8 was 31.1 µM (inactive); in the assay on M14 it was 34.3 µM (inactive); in the assay on SNB-19, 33.6 µM (inactive); in the assay on KM12 it was 31.9 µM (inactive); with RPMI-8226 it was 30.2 µM (inactive).
Take `O=C1NC(=S)NC(=O)C1=Cc1cc2c(cc1[N+](=O)[O-])OCO2`: the GI50 with CAKI-1 is 94.4 µM (inactive); with SF-268 it was > 100 µM (inactive); in the assay with U-251, > 100 µM (inactive); in the assay on EKVX it was > 100 µM (inactive); in the assay with SF-539 it was 83.2 µM (inactive); in the assay with 786-0, 62.8 µM (inactive). In addition, the GI50 is > 100 µM (inactive) in the assay with UACC-257; > 100 µM (inactive) with IGROV-1; > 100 µM (inactive) with UO-31; > 100 µM (inactive) in the assay on HCC 2998; > 100 µM (inactive) in the assay on SK-MEL-5; 73.3 µM (inactive) with OVCAR-8. The GI50 in the assay on M14 was 77.6 µM (inactive); in the assay on SNB-19 it was > 100 µM (inactive); in the assay with KM12 it was 40.6 µM (inactive); in the assay on RPMI-8226, 42.2 µM (inactive).
